“Also recorded” adds a separate entry of the source.
Experiments:
WT mice = test: Femoral fracture healing after Hh antagonism, Mechanical Strength Testing (MST); assay type: in vivo, mouse; conditions: oral gavage immediately after injury, post-fracture week 4, versus untreated
Procedure: (§1) To verify that Hh antagonism impairs fracture repair in vivo, we administered XL139 to WT mice via oral gavage immediately after injury and assessed healing femur strength at post-fracture week 4 using MST.
Femoral fractures. Ten-week old mice were anesthetized with aerosolized isoflurane. Analgesia was administered and the surgical site was prepared prior to skin incision. A medial parapatellar incision was created. The patella was dislocated laterally to expose the femoral condyles. The medullary cavity was reamed using a 25 to 23 G×⅝-inch regular bevel needle (BD) prior to insertion of an intramedullary pin of equal diameter into the medullary cavity. A transverse, middiaphyseal fracture was made using scissors. The pin remained in situ to provide relative stability during healing. The patella was relocated, muscles were reapproximated, and the skin was closed using a 6/0 nylon suture. Animals were radiographed to verify fracture alignment and assess fracture fixation. Animals with fracture displacement were excluded. Pin diameter was adjusted according to femoral cavity lumen diameter to minimize migration.
Mechanical Strength Testing (MST). MST was performed using a delaminator run by R.H. Dauskardt laboratory at Stanford University. […] The maximum load (N) to fracture was recorded (FIG. 9).

mSSCs and BCSPs = test: FACS count of mSSCs and BCSPs in calluses after Hh antagonism; assay type: in vivo, mouse; conditions: post-fracture day 7 calluses of treated versus untreated WT mice
Procedure: as §1
Isolation of skeletal progenitor cells. Uninjured femora and fractured femora were harvested at post-fracture days 3, 7, 10, 14, 21, and 28. Fracture calluses were dissected using microscopy. Tissues were crushed with mortar and pestle in collagenase buffer (2.2 mg/ml collagenase, DNase, 1000×1 M CaCl2, 100×p188, 50×1 M Hepes, m199 solvent), and heated to 37° C. for 10 min to activate collagenase. Each sample underwent 3 serial digestions at 37° C. for 25 minutes under gentle agitation. Dissociated cells were filtered through a 40 μm nylon mesh and washed in FACS buffer (2% fetal bovine serum in PBS). Each sample was pelleted at 200 g at 4° C. and resuspended in FACS buffer. Then, each sample was layered onto a histopaque gradient prior to centrifugation at 1400 rpm for 15 minutes at room temperature with zero acceleration. The cloudy interphase was aspirated, washed with FACS buffer, and centrifuged. The cells were stained with fluorochrome-conjugated antibodies against CD45, Ter119, Tie2, αv-integrin, Ly 51, CD105, Thy 1.1, and Thy 1.2 for purification by flow cytometry. Cells were sorted twice (once on “yield,” then on “purity”) to increase purity (BD FACS Aria).

[1] = tested on: post-fracture day 7 WT mSSCs; test: In vitro osteogenesis of mSSCs under Hh antagonism, alizarin red staining; assay type: cell-based, mouse; conditions: post-fracture day 7 WT mSSCs treated in vitro
Description: To investigate if Hh signaling is essential for mSSC-dependent osteogenesis, we antagonized Hh signaling in post-fracture day 7 WT mSSCs in vitro using XL139, a small molecule antagonist of Smo.
(§2) Cell culture. Cells were maintained in vitro in Minimum Essential Media (MEM) with 10% FBS and 1% penicillin-streptomycin (Penstrep) under 2% O2/7.5% CO2. Each plate was coated with 0.1% gelatin. Cultured cells were lifted using collagenase II buffer (Sigma-Aldrich). For mSSC colony forming assays, cells were cultured for 2 weeks and colonies were counted using phase microscopy. The cells were lifted for staining and analysis by FACS. Osteogenic differentiation medium consisted of Dulbecco's Modified Eagle Medium with 10% FBS, 100 μg/ml ascorbic acid, and 10 mM-glycerophosphate. mSSCs isolated from P3, WT, and db mice were maintained in either regular media (MEM-alpha medium with 10% FBS, 1% Penstrep) or regular media supplemented with Ihh (R&D, […]), Shh (R&D, 500 pg/mL), or PBS under 2% O2/7.5% CO2 conditions. After 7 days, cells were lifted for staining and analysis by FACS or for RNA extraction and qRT-PCR.

Ihh expression = test: qRT-PCR of Ihh expression in mSSC and BCSP cultures in supplemented media; assay type: cell-based, mouse
Procedure: To determine if high levels of glucose or TNFα could directly repress Hh expression in skeletal niches, we cultured FACS-sorted mSSCs and BCSPs from uninjured P3 WT femora in glucose-supplemented, TNFα-supplemented, or control media for 48 hours. […] Furthermore, neutralization of TNFα with anti-TNFα antibodies restored Ihh expression levels in mSSCs cultured in dbLR serum (FIG. 15).
as §2
Quantitative reverse transcription polymerase chain reaction (qRT-PCR). RNA was isolated from cells using the RNeasy Mini kit (Qiagen) as per manufacturer's instructions. Reverse transcription was performed and gene expression was examined by qRT-PCR using the Applied biosystems Prism 7900HT sequence detection system (Applied Biosystems) and SYBR Green PCR Master Mix (Applied Biosystems). All values were normalized using glyceraldehyde 3-phosphate dehydrogenase for mouse samples and using beta-actin for human samples. Specific primer sequences for genes of interest were obtained from PrimerBank.

Compound | healing femur strength (MST) (WT mice) | number of mSSCs and BCSPs (mSSCs and BCSPs) | osteogenic potential of mSSCs (alizarin red staining) [1] | dose dependence of repression of Ihh expression in BCSPs (Ihh expression; BCSP-derived cultures from uninjured P3 mice) | Ihh expression (qRT-PCR) in BCSP cultures (Ihh expression; BCSPs from uninjured P3 WT femora, supplemented media 48 hours versus control media) | Ihh expression (qRT-PCR) in mSSC cultures (Ihh expression; mSSCs from uninjured P3 WT femora, supplemented media 48 hours versus control media)
CNCc1ccc(C)c(NC(=O)c2ccc(Nc3nc(-c4ccccc4)c4ccccc4n3)cc2)c1 [XL139] | reduced significantly | highly significant reduction | dose-dependent reduction; also recorded: reduces |  |  | 
TNFα |  |  |  | dose dependent; also recorded: dose-dependent | significantly reduced; also recorded: reduces | significantly reduced; also recorded: significantly diminishes
